For orientation: melting point means the temperature of the solid-liquid transition.

As to `Cc1ccc(S(=O)(=O)NC(=O)OCCc2ccc(-n3c(CCC(=O)N4CCCCC4)nc4cc(C(F)(F)F)c(Cl)cc43)cc2)cc1`, the melting point is 210 °C.
In turn, `COC(=O)c1cccc2cc(C)[nH]c12` registered a melting point of 170 to 173 °C.
`C=CCN(c1ccccc1)c1cc(C(N)=O)c(C(=O)O)cc1N(CC=C)c1ccccc1` had a melting point of 114 to 116 °C.
`FC(F)(F)c1cc(-c2ccccc2)nc(N2CCNCC2)n1` registered a melting point of 130 °C.
As for `O=C1CCCOc2ccc(O)cc21`, the melting point was in the range of 116 to 120 °C.
With `CS(=O)CC(=N)c1ccccc1O` (stereo unspecified), the melting point fell in the range of 194 to 195 °C.
`N#CC(CO)Cc1cc(O)c(O)c([N+](=O)[O-])c1` (stereo unspecified): the melting point fell in the range of 149 to 152 °C.
The value for `CCOC(=O)c1nn(-c2ccc(Br)cc2)c(=O)c(C#N)c1C` was 174 to 176 °C.
Molecule `COc1cnn(C)c(=O)c1-c1c(C)cc(C)cc1C` had a melting point of 186 to 192 °C.
In turn, `Cc1ncccc1NC(=NC#N)NC(NC(=O)Cc1ccc(F)cc1)C(C)(C)C` (stereo unspecified) yielded a melting point of 166 to 167 °C.
The result for `CCCc1c(OCCCCCCc2ccc3cc(O)c(O)cc3c2)ccc(C(=O)O)c1O` reads 154 to 158 °C.
For the molecule `OC1CCc2[nH]c3ccccc3c2C1` (stereo unspecified), the melting point was found to be 140 °C.
For `Cn1c(-c2cc(C(C)(C)C)c(O)c(C(C)(C)C)c2)n[nH]c1=O`, the melting point lay within 308 to 312 °C.
As to `CCOC(=O)c1csc2cc(Oc3ccnc(N)n3)ccc12`, the melting point fell in the range of 144 to 145 °C.
The result for `CCc1nnc2c(N(CC)CC)nc3ccc(OC)cc3n12` reads 135 to 138 °C; that for `COc1cc(OC)cc(-c2nn(C(C)c3oc4ccccc4c(=O)c3-c3cccc(F)c3)c3ncnc(N)c23)c1` (stereo unspecified), 224 to 227 °C; that for `COc1cc(-c2nc3ccccc3n2Cc2ccccc2Cl)cc(OC)c1OC`, 174 °C.
The result for `CC(=O)Nc1cc(C)cc(C=O)n1` reads 202 °C.
In the case of `Cc1ncc2c(=O)n(C)c(=O)n(C)c2n1`, the melting point was in the range of 113 to 115 °C.
The molecule `COC(OC)C(=O)NCc1ccc(C)cc1` came in with a melting point of 45.8 °C.
`O=c1c(Br)c(OCc2cccc(Cl)c2)ccn1Cc1cccc(F)c1`: the melting point lay in the range of 149 to 153 °C.
As for `Cc1sc(COc2ccc(/C=C/C=O)cc2)nc1-c1ccccc1`, the melting point was in the range of 116 to 117 °C.
As for `O=[N+]([O-])c1ccc(Oc2ccc3ccc(Oc4ccc([N+](=O)[O-])c(O)c4)cc3c2)cc1O`, the melting point is 218 to 220 °C.
As for `C=CCOc1ccc2c(c1)c(C)c(CCC(=O)O)n2Cc1ccc(Cl)cc1`, the melting point amounted to 131 °C.
As to `COC(=O)C(=O)c1ccc(OCCCc2ccc(F)cc2)cc1`, the melting point was in the range of 42 to 43 °C.
In turn, `Cc1ccc2c(c1)[C@H](Nc1nc(NC=O)nc(C(F)F)n1)[C@@H](C)C2` yielded a melting point of 66 °C.
`Cc1cc(-n2ccnc2)c2cccc(OCc3c(Cl)ccc(S(=O)(=O)N4CCC[C@H]4C(=O)N4CCN(c5ccccn5)CC4)c3Cl)c2n1` showed a melting point of 108 °C.
The value for `CCN(CC)S(=O)(=O)c1ccc(C#CC(C)(O)C(F)(F)F)cc1` (stereo unspecified) was 140 to 144 °C; that for `C[C@@H](NC(=O)c1c[nH]c2ncc(-c3nn(CCCO)c4cc(Cl)ccc34)nc12)C(=O)N1CC(C#N)C1` was 240 to 250 °C.
As to `O=C(O)C1Cc2cc(-c3ccccc3)ccc2O1` (stereo unspecified), the melting point fell in the range of 186 to 187 °C.
In turn, `COC(=O)Nc1ccc(CCc2cc(OC)ccc2OC)cc1C(=O)OC` yielded a melting point of 80 to 82 °C.
The molecule `CCCCC1c2sccc2CCN1CCNC(=O)c1ccc(NS(C)(=O)=O)cc1` (stereo unspecified) returned a melting point of 98 to 105 °C.
`O=C1NC(=O)C(CCOc2ccccc2)S1` (stereo unspecified) came in with a melting point of 81 to 83 °C.
For `Cc1cc(Cl)cc(CO)c1`, the melting point was in the range of 32 to 34.5 °C.
`O=C1NCCc2c1c1ccccc1n2CC1CCCC1`: the melting point was in the range of 179 to 181 °C.
The molecule `CCCSC(C(N)=O)c1cccc(C(=O)c2ccc(F)cc2)c1N` (stereo unspecified) displayed a melting point of 140 to 142 °C.
For the molecule `CCC(CC)(Cc1ccc(Cl)cc1)C(O)c1cccnc1` (stereo unspecified), the melting point lay in the range of 128 to 129 °C.
The molecule `CC(=O)OC1CSC(Oc2cncc(-c3ccc(C)c(C)c3)c2)C(OC(C)=O)C1OC(C)=O` (stereo unspecified) gave a melting point of 131 °C.
As for `CC(C)C(=CC(CNC(=O)c1cccnc1)=NO)C(C)[N+](=O)[O-]` (stereo unspecified), the melting point is 132 to 135 °C.
`CC1C(=O)N(c2ccccc2)C(=S)N1c1ccc(Oc2ccc(O)cc2)cc1` (stereo unspecified) had a melting point of 106 to 108 °C.
For `CCn1cc(C(=O)O)c(=O)c2cc(Cl)c(N3CCN(C)CC3)cc21`, the melting point is 260 °C.
As for `Cc1ccc(S(=O)(=O)N2CCC(c3ccc(O)cc3O)CC2)cc1`, the melting point fell in the range of 206 to 207 °C.
Molecule `CCc1c(Oc2c(Cl)cc(C(F)(F)F)cc2Cl)n[nH]c1C` gave a melting point of 215 to 218 °C.
As to `CCOC(=O)CCNC(=O)C(Cc1ccc(-c2ccccc2)cc1)N(CP(=O)(O)O)C(OC(=O)CC)C(C)C` (stereo unspecified), the melting point fell in the range of 154 to 158 °C.
`Cn1c(-c2nnc3ccc(NC=O)nn23)cnc1[N+](=O)[O-]` displayed a melting point of 224 to 226 °C.
Molecule `N#CC(N)=C(C#N)N=Cc1cnn(-c2c(Cl)cc(OC(F)(F)F)cc2Cl)n1` came in with a melting point of 199 to 201 °C.
The molecule `CC1(C)Cc2sccc2C1N` (stereo unspecified) yielded a melting point of 80 °C.
The value for `N#CCNS(=O)(=O)c1ccc([N+](=O)[O-])cc1` was 115 to 120 °C; that for `NC(=O)c1ncn2c1[C@@H]1CCCN1C(=O)c1cc(F)ccc1-2` was 239 to 240 °C; that for `CC(C)(N)c1ccc(-c2nc(Nc3cccc(F)c3)ncc2C#N)cc1` was 209 °C.
The value for `CNCCc1cc(Br)cc(-c2sccc2C)c1N` was 68 to 70 °C; that for `CCOC(=O)NNc1cccc(Cl)n1` was 139 to 141 °C.
Molecule `O=C1CS(=O)(=O)CN1c1cccc(C(F)(F)F)c1` returned a melting point of 115 to 117 °C.
The molecule `N#Cc1cccc2nc(N[C@@H]3CCc4ccccc43)ccc12` showed a melting point of 150 °C.
`O=C(NC1=NN(c2ccccc2)CC1)C(F)(F)F`: the melting point is 163 to 165 °C.
The result for `COc1ccc(-c2ccc(-c3ccccc3)nc2-c2ccc(OCCN3CCCC3)cc2)cc1` reads 100 to 103 °C; that for `COc1ccccc1-n1c(=O)[nH]c2c(C(N)=O)nc(NC[C@H]3CCCN3)nc21`, 155 to 157 °C.
Consider `COc1cc(C(=O)CSCC2CCCCC2)c(OC)cc1Cl`, for which the melting point is 51 to 53 °C.
Consider `CC(C)(C)C(=O)NCCCOc1ccncc1`, for which the melting point lay in the range of 71.5 to 72.5 °C.
`CC(C)NC(=O)c1c(NC(=O)c2cc(C(F)(F)F)nn2-c2ncccc2Cl)c(Cl)cc2cn[nH]c12` registered a melting point of 245 to 247 °C.
The value for `N#CCC(O)(Cn1cncn1)c1ccc(Cl)cc1Cl` (stereo unspecified) was 217 to 219 °C; that for `NC(=O)c1nnn(Cc2ccc(C(=O)c3c(Cl)cccc3Cl)cc2)c1N` was 165 to 167 °C; that for `CCOP(=O)(OCC)C(CCc1cc(C)nc2cc(-c3ccccc3)nn12)P(=O)(OCC)OCC` was 51 to 52 °C.
Take `Cc1cccc(NC(=O)NC2N=C(c3ccccc3F)c3ccccc3N(Cc3cc4ccccc4o3)C2=O)c1` (racemic): the melting point was in the range of 213 to 214 °C.
As to `CC(C(=O)O)c1ccc2oc(-c3ccc(Cl)cc3)nc2c1` (stereo unspecified), the melting point was determined as 190 °C.
In turn, `O=C(O)c1ccccc1Oc1ccc2c(c1)CC[C@H](CNC[C@H](O)COc1ccccc1)O2` displayed a melting point of 188 °C.
The molecule `Cc1cc([N+](=O)[O-])c2c(c1SC(=O)N(C)C)CCC2` came in with a melting point of 180 °C.
In turn, `CC(C)c1cc2ncnn2nc1OCCOCCN1CCN(C(c2ccccc2)c2ccccc2)CC1` came in with a melting point of 119 to 120 °C.
As to `CSc1ccc2c(c1)C(O)c1ccccc1C=C2` (stereo unspecified), the melting point was in the range of 117 to 118 °C.
The molecule `CCCC(=O)NCCCC1c2ccccc2C=Cc2ccccc21` displayed a melting point of 76 to 80 °C.
Molecule `CNc1nnc(-c2ccc3ncn(-c4ccc(OC(F)F)cc4)c3c2)o1` showed a melting point of 195 to 196 °C.
In the case of `O=CCC1Cc2ccc(F)cc2C1=O` (racemic), the melting point was determined as 62 °C.
`O=C1C(=Cc2ccc(O)c(CO)c2)Cc2ccccc21`: the melting point was 194 to 195 °C.
Regarding `C=CCN(C(=O)n1oc(C)c(Cl)c1=O)c1ccc(Cl)cc1Cl`, the melting point lay in the range of 90.5 to 92 °C.
The result for `Cc1cc(SC(C)C)c(NC(=O)CSc2nc3ccccc3s2)c(SC(C)C)n1` reads 117 to 118 °C.
In the case of `O=C(NO)c1ccc(CNC(=O)c2[nH]c(-c3cccs3)cc2-c2ccc(O)cc2)cc1`, the melting point is 171 to 172 °C.
In the case of `Cc1cc2sc3ncc(C(=O)Nc4nnn[nH]4)c(=O)n3c2cc1C`, the melting point is > 300 °C.
In turn, `CC=C(c1ccc(F)cc1)c1ccc(F)cc1` gave a melting point of 43 to 44 °C.
The result for `CCOC(=O)c1ccc(COc2cccc3occc23)cc1` reads 70 to 72 °C; that for `NC(=O)CC1Cc2cc(Br)cc3[nH]c(=O)c(=O)n1c23` (stereo unspecified), > 300 °C.
The molecule `COc1ccc(/C=C/c2ccccc2)c(OC)c1OC` gave a melting point of 79 to 82 °C.
Consider `CC(C)(C)NC1CCCCC1O` (stereo unspecified), for which the melting point lay in the range of 42 to 44 °C.
In turn, `O=C1N(c2ccc(Cl)cc2)c2ncccc2C1(Cc1ccccc1)Cc1ccncc1` (stereo unspecified) had a melting point of 182 to 185 °C.
`CC(=O)C(C)(C)Nc1ccccc1` had a melting point of 65 to 66 °C.
On to `Cc1[nH]c2ccccc2c1C=C1SC(=S)N(CC(=O)O)C1=O`, for which the melting point fell in the range of 291 to 292 °C.
On to `CNC(=N[N+](=O)[O-])SC`, for which the melting point was 150 to 152 °C.
For `O=c1cc(-c2ccccc2)oc2ncc(CN3CCCC3)cc12`, the melting point lay in the range of 294 to 296 °C.
With `CC(C)(C)c1cc(OCc2cccc(C(=O)O)c2)cc(C(C)(C)C)c1`, the melting point was 167 to 169 °C.
In the case of `Cc1cc(C)n(-c2ncc(Br)c(Nc3ccc(Cl)cc3)n2)n1`, the melting point was 144 to 154 °C.
In the case of `CCCCc1nn(-c2ccc([N+](=O)[O-])cc2C(F)(F)F)c(=O)n1Cc1ccc(-c2ccccc2S(=O)(=O)NC(C)(C)C)cc1`, the melting point is > 78 °C.
For the molecule `O=C(O)C1=CCN2C=CC=CC2=C1`, the melting point is 258 to 262 °C.

The values above are taken from a melting point compilation (Tetko et al.; mined from patent text by program, amines drawn as free bases though some values may be those of a salt).
